These results are taken from US20100278776A1, “PHARMACEUTICAL COMPOSITIONS FOR MODULATING A KINASE CASCADE AND METHODS OF USE THEREOF” (Kinex Pharmaceuticals, LLC, priority 2007, published 2010).

Molecules are shown by their SMILES. Structures can show the parent of a compound that is named as a salt.

One may read the inhibition as the percentage by which the read-out fell short of the control.

The experiment has as its system HBV. The experiment can be described thus: HBV primary assay (HepG2-2.2.15 antiviral assay). Format: cell-based. To be noted: Hepatitis B virus, Test Concentration 10 μM, read-out: Antiviral Activity Percent inhibition of cell control. As to the method:
The HBV primary assay developed was conducted similarly to that described by Korba et al., (Antiviral Res. 15: 217-228 (1991) and Antiviral Res. 19: 55-70 (1992)) with the exception that viral DNA detection and quantification have been improved and simplified (Korba et al., Antiviral Res. 19: 55-70 (1992)).
The HepG2-2.2.15 is a stable cell line producing high levels of the wild-type aywl strain of HBV. Briefly, HepG2-2.2.15 cells were plated in 96-well plates. Only the interior wells were utilized to reduce “edge effects” observed during cell culture; the exterior wells are filled with complete medium to help minimize sample evaporation. […] Six days following the initial administration of the test compound, the cell culture supernatant was collected, treated with pronase and DNAse and then used in a real-time quantitative TaqMan PCR assay for direct measurement of HBV DNA copies using an ABI Prism 7900 sequence detection system (Applied Biosystems, Foster City, Calif.).
The antiviral activity of each test compound was calculated by comparing its HBV DNA copies against that of the untreated control cells (100%) to derive percent inhibition level. […] Cytotoxicity of the compound was determined by comparing its cell viability with that of the untreated cell control to derive percentage of the cell control.

For `O=C(Cc1ccc(-c2ccc(OCCN3CCOCC3)cc2)cn1)NCc1ccccc1` [Compound (I): 2HCl, 2-(5-(4-(2-morpholinoethoxy)phenyl)pyridin-2-yl)-N-benzylacetamide dihydrochloride salt], the inhibition at 10 µM stood at 48.2%.
